The values that follow come from patent publication US20040198973A1, “Process for preparation of carbapenem antibiotics” (priority 2001, published 2004).

One data set deals with Pseudomonas aeruginosa. The conditions noted are these: Document 1: Drug of the Future, 1996, 21(4): 361-365; cited from earlier work.
A short description of data set [1]: Solubility of starting compound 1 in organic solvents. The format is physicochemical. From the text:
The process described in Document 3 (Kohichi Hirai, Hiroshi Maruyama, Journal of Synthetic Organic Chemistry, Japan, 57, 383 (1999)) is the one for implementing such a procedure wherein a side chain part including amine is first condensed with parent derived from azetidinone, then, an active ester is introduced into the condensate, and thereafter, the resulting product is subjected to ring-closing reaction to form a lactam ring. However, a compound into which an active ester has been already introduced, p-nitrobenzyl(1R,5S,6S)-2-diphenoxyphosphoryloxy-6-[(R)-1-hydroxyethyl]-1-methyl-1-carbapen-2-em-3-carboxylate (starting compound 1) is industrially available recently at an affordable price as a starting material for parent of carbapenem, so that the starting material has been replaced by the above-described compound. However, solubility of the starting compound 1 is high in a high boiling point solvent such as dimethylformamide and dimethylsulfoxide, while it is low in a solvent having a low boiling point such as tetrahydrofuran and acetonitrile, as well as in aromatic solvents such as toluene (see the following Table 1). Under the circumstances, when a high boiling point solvent is used, a difficulty in industrial level arises in case of removing the high boiling point solvent as described later in detail. For this reason, there are many cases wherein the above-described starting compound 1 cannot be applied to the process of Document 3.

Some results are limits rather than exact numbers.

On to `C[C@@H](O)[C@H]1C(=O)N2C(C(=O)O)=C(S[C@@H]3CN[C@H]([C@H](O)[C@@H]4CCNC4)C3)[C@H](C)[C@H]12`, for which the antimicrobial action entry in the data set with Pseudomonas aeruginosa was “excellent antimicrobial action”.

In the case of `C[C@@H](O)[C@H]1C(=O)N2C(C(=O)OCc3ccc([N+](=O)[O-])cc3)=C(OP(=O)(Oc3ccccc3)Oc3ccccc3)[C@H](C)[C@@H]12` [p-nitrobenzyl(1R,5S,6S)-2-diphenoxyphosphoryloxy-6-[(R)-1-hydroxyethyl]-1-methyl-1-carbapen-2-em-3-carboxylate], the Solubility is 0.6 ML/0.1 g in data set [1] (Acetonitrile, at 20° C., solvent volume per 0.1 g); less than 0.1 ML/0.1 g in data set [1] (Dimethylformamide, at 20° C., solvent volume per 0.1 g); less than 0.1 ML/0.1 g in data set [1] (Methylsulfoxide, at 20° C., solvent volume per 0.1 g); 0.6 ML/0.1 g in data set [1] (Tetrahydrofuran, at 20° C., solvent volume per 0.1 g); more than 10 ML/0.1 g in data set [1] (Toluene, at 20° C., solvent volume per 0.1 g); “high” in data set [1] (in a high boiling point solvent such as dimethylformamide and dimethylsulfoxide). Further, in data set [1] (in a low boiling point solvent such as tetrahydrofuran and acetonitrile, and aromatic solvents such as toluene), the Solubility entry is given as “low”.
